Measured values reported in PMC6440464 (PeerJ, 2019).
Read-outs that look alike come from different tables or passages of the source.

Columns and labels:
[1] = Pharmacokinetics study after separate oral administration in rats (HPLC-MS of plasma); assay type: in vivo, Sprague-Dawley rats; details: for AUC(0-t) / MRT last / Tmax / CL/F / Cmax / half-life: po; for Tmax: read-out: Tmax (converted); for CL/F: read-out: CLz/F; for Cmax: read-out: Cmax; for half-life: read-out: t1/2z
Method: A total of 15 SPF Sprague-Dawley rats (SD, male, 190–210 g) were provided by Sino-British Sippr/BK Lab Animal Company Ltd. (Shanghai, China). The rats were kept in standard conditions (22–26 °C; 40–60% relative humidity; 12 h light/dark cycle). Throughout the rearing period, the animals had access to food and water ad libitum. Animal experiments were conducted in accordance with the standard ethical guidelines of the Laboratory Animal Management Committee of Jiangsu Province (SYXK (SU) 2016-0011).
Following 1 week of adaptation, the rats were fasted for about 12 h before dosing, with free access to water. […] After administration of the first dose, blood samples were taken from the retro-orbital vein at 0, 5, 15, 30, 60, 90, 120, 180, 240, 360, 480, and 1,440 min and collected in heparinized tubes. The samples were centrifuged at 3,500 rpm for 10 min at 4 °C and the plasma was stored at −80 °C until analysis.
An Agilent 1,200 series HPLC system (Agilent Technologies, Waldbronn, Germany) equipped with a quaternary pump on-line degasser, auto-sampler and column oven, and an SL G1946D quadruple mass spectrometer (Agilent Technologies, Santa Clara, CA, USA) equipped with an electrospray ionization (ESI) source, were used for separation and detection. Data were acquired and analyzed using Agilent ChemStation Software Version A.01.00 (Agilent Technologies, Santa Clara, CA, USA).
The separation was carried out with an Amethyst C18-H column (150 × 4.6 mm, 5 μm, Sepax Technologies, Newark, DE, USA) with a guard column SB-C18 (10 × 4.6 mm, 5 μm, Phenomenex Technologies, Torrance, USA) at a constant temperature of 25 °C.
The mass spectra were acquired using ESI interfaced to a single quadrupole mass spectrometer. The ionization conditions were as follows: drying gas (N2) flow rate of 11 L/min, drying gas temperature of 350 °C, nebulizing gas (N2) pressure of 35 psi, capillary voltage of 3,500 V, quad temperature of 100 °C, and fragment voltage of 110 V. A series of m/z were monitored using a timed program according to the retention times and characteristic ions for the corresponding HPLC-MS peak obtained by scanning from m/z 100–1,000 in the standard sample.
Briefly, an aliquot of plasma sample (100 μL) was spiked with 5% formic acid (10 μL) in centrifuge tube. Subsequently, hydrochloric acid (2 mol/L, 10 μL) and IS solution (960.00 ng/mL, 20 μL) were added. Then ethyl acetate/n-butyl alcohol (1:1 v/v; 1,000 μL) was used to extract the components. The samples were then homogenized by vortex mixing and centrifuged for 10 min at 14,000 rpm. After centrifugation, 800 μL of supernatant was transferred to another centrifuge tube and the sample was evaporated to dryness. The residues were dissolved in 100 μL of methanol and centrifuged for 10 min at 12,000 rpm. 50 μL of the supernatant was transferred to the vial and an aliquot of 5 μL was injected into the HPLC-MS system for analysis.
DAS 2.0 (Chinese Pharmacological Association, Shanghai, China) was used to calculate the pharmacokinetic parameters using the non-compartment model, including the area under curve (AUC), mean residence time (MRT), half-life ( t1/2z), clearance rate (CL), maximum plasma concentration (Cmax), and time (Tmax). All results are expressed as mean ± standard deviation (SD). One way analysis of variance followed by […] was used for comparison of different groups using Graph pad prism 5 software. A p-value of <0.05 was considered statistically significant.

[2] = design: method as in Yoshino et al., 2011; details: ref Yoshino et al., 2011; cited from earlier work
[3] = male, Sprague-Dawley, rat, plasma, 50 mg/kg, IQ group (oral IQ 50 mg/kg), rat plasma, labelled substance = analyte, mean of 5 rats
[4] = male, Sprague-Dawley, rat, plasma, 50 mg/kg, IQ group: oral IQ 50 mg/kg, rat plasma, mean ± SD, n = 5
[5] = male, Sprague-Dawley, rat, plasma, 50 mg/kg, QG group (oral QG 50 mg/kg), rat plasma, labelled substance = analyte, mean of 5 rats
[6] = male, Sprague-Dawley, rat, plasma, 50 mg/kg, QG group: oral QG 50 mg/kg, rat plasma, mean ± SD, n = 5
[7] = male, Sprague-Dawley, rat, plasma, 50 mg/kg, Qr group (oral Qr 50 mg/kg), rat plasma, labelled substance = analyte, mean of 5 rats
[8] = male, Sprague-Dawley, rat, plasma, 50 mg/kg, Qr group: oral Qr 50 mg/kg, rat plasma, mean ± SD, n = 5

For O=C(O)[C@H]1O[C@@H](Oc2c(-c3ccc(O)c(O)c3)oc3cc(O)cc(O)c3c2=O)[C@H](O)[C@@H](O)[C@@H]1O [QG, Quercetin-3-O-β-D-glucuronide], the “AUC0−t” value ([1]; Qr group: oral Qr 50 mg/kg, rat plasma, mean ± SD, n = 5) was 1,150.0 ± 454.2 mg/L*min, the “Shape of mean plasma concentration-time profile” value ([1]; after oral administration of QG 50 mg/kg) was “clear double peak phenomenon” and the concentration at 120 min ([1]; male, Sprague-Dawley, rat, plasma, oral, 50 mg/kg, IQ group (oral IQ 50 mg/kg), 120 min, individual rats NO. 1-5, read-out: Plasma concentrations) was 872 ng/mL. For the same compound, the AUC(0-t) ([1]; male, Sprague-Dawley, rat, plasma, 50 mg/kg, IQ group (oral IQ 50 mg/kg), rat plasma, labelled substance = analyte, individual rats No1-No5, read-out: AUC(0-t) (converted)) was 8820 ng·h/mL, the MRT last ([1]; male, Sprague-Dawley, rat, plasma, 50 mg/kg, IQ group (oral IQ 50 mg/kg), rat plasma, labelled substance = analyte, individual rats No1-No5, read-out: MRT(0-t) (converted)) was 4.63 h and the Tmax ([1]; male, Sprague-Dawley, rat, plasma, 50 mg/kg, IQ group (oral IQ 50 mg/kg), rat plasma, labelled substance = analyte, individual rats No1-No5) was 0.5 h. The AUC(0-t) ([1]; male, Sprague-Dawley, rat, plasma, 50 mg/kg, IQ group (oral IQ 50 mg/kg), rat plasma, labelled substance = analyte, mean of 5 rats, read-out: AUC(0-t) (converted)) was 11200 ng·h/mL, the CL/F [1, 3] was 70 mL/min/kg and the Cmax [1, 3] was 3900 ng/mL. It also gave an MRT last ([1]; male, Sprague-Dawley, rat, plasma, 50 mg/kg, IQ group (oral IQ 50 mg/kg), rat plasma, labelled substance = analyte, mean of 5 rats, read-out: MRT(0-t) (converted)) of 5.93 h, a Tmax [1, 3] of 0.5 h and a half-life [1, 3] of 8.73 h. It also gave an AUC(0-t) ([1]; male, Sprague-Dawley, rat, plasma, 50 mg/kg, IQ group: oral IQ 50 mg/kg, rat plasma, mean ± SD, n = 5, read-out: AUC0−t (converted)) of 11200 ng·h/mL, a Cmax [1, 4] of 3910 ± 1340 ng/mL and an MRT last ([1]; male, Sprague-Dawley, rat, plasma, 50 mg/kg, IQ group: oral IQ 50 mg/kg, rat plasma, mean ± SD, n = 5, read-out: MRT0−t (converted)) of 5.93 h. The Tmax [1, 4] was 0.5 h, the half-life [1, 4] was 8.72 ± 3.17 h and the MRT last ([1]; male, Sprague-Dawley, rat, plasma, 50 mg/kg, QG group (oral QG 50 mg/kg), rat plasma, labelled substance = analyte, individual rats No1-No5, read-out: MRT(0-t) (converted)) was 6.52 h. It also gave a half-life ([1]; male, Sprague-Dawley, rat, plasma, 50 mg/kg, QG group (oral QG 50 mg/kg), rat plasma, labelled substance = analyte, individual rats No1-No5) of 4.98 h, an AUC(0-t) ([1]; male, Sprague-Dawley, rat, plasma, 50 mg/kg, QG group (oral QG 50 mg/kg), rat plasma, labelled substance = analyte, mean of 5 rats, read-out: AUC(0-t) (converted)) of 16000 ng·h/mL and a CL/F [1, 5] of 71 mL/min/kg. For the same compound, the Cmax [1, 5] was 2040 ng/mL, the MRT last ([1]; male, Sprague-Dawley, rat, plasma, 50 mg/kg, QG group (oral QG 50 mg/kg), rat plasma, labelled substance = analyte, mean of 5 rats, read-out: MRT(0-t) (converted)) was 7.3 h and the Tmax [1, 5] was 3.7 h. The half-life [1, 5] was 6.27 h, the AUC(0-t) ([1]; male, Sprague-Dawley, rat, plasma, 50 mg/kg, QG group: oral QG 50 mg/kg, rat plasma, mean ± SD, n = 5, read-out: AUC0−t (converted)) was 16000 ng·h/mL and the Cmax [1, 6] was 2040 ± 850 ng/mL. The MRT last ([1]; male, Sprague-Dawley, rat, plasma, 50 mg/kg, QG group: oral QG 50 mg/kg, rat plasma, mean ± SD, n = 5, read-out: MRT0−t (converted)) was 7.3 h, the Tmax [1, 6] was 3.7 h and the half-life [1, 6] was 6.27 ± 1.59 h. For the same compound, the Tmax ([1]; male, Sprague-Dawley, rat, plasma, 50 mg/kg, Qr group (oral Qr 50 mg/kg), rat plasma, labelled substance = analyte, individual rats No1-No5) was 0.5 h, the AUC(0-t) ([1]; male, Sprague-Dawley, rat, plasma, 50 mg/kg, Qr group (oral Qr 50 mg/kg), rat plasma, labelled substance = analyte, mean of 5 rats, read-out: AUC(0-t) (converted)) was 19200 ng·h/mL and the CL/F [1, 7] was 43 mL/min/kg. The Cmax [1, 7] was 6460 ng/mL, the MRT last ([1]; male, Sprague-Dawley, rat, plasma, 50 mg/kg, Qr group (oral Qr 50 mg/kg), rat plasma, labelled substance = analyte, mean of 5 rats, read-out: MRT(0-t) (converted)) was 5.27 h and the Tmax [1, 7] was 0.7 h. It also gave a half-life [1, 7] of 9.1 h, an AUC(0-t) ([1]; male, Sprague-Dawley, rat, plasma, 50 mg/kg, Qr group: oral Qr 50 mg/kg, rat plasma, mean ± SD, n = 5, read-out: AUC0−t (converted)) of 25800 ng·h/mL and a Cmax [1, 8] of 6460 ± 2940 ng/mL. It also gave an MRT last ([1]; male, Sprague-Dawley, rat, plasma, 50 mg/kg, Qr group: oral Qr 50 mg/kg, rat plasma, mean ± SD, n = 5, read-out: MRT0−t (converted)) of 5.26 h, a Tmax [1, 8] of 0.7 h and a half-life [1, 8] of 9.1 ± 7.28 h. For the same compound, the “Toxicity compared with its aglycone” value [2] was “much less toxic”.
